“And” between values parts separate entries of the source, which are not always exact repeats. Equal values may be shown once. Each block holds one compound with its values, some of them ahead of it.
Columns and labels:
Assay in all cases: radiometric filter-binding kinase assay, Kinase HotSpot
Conditions in all cases: compound 0.5 µM; ATP 10 µM
ABL2 (human) = ABL2 (human) (UniProt P42684)
AKT1 (human) = AKT1 (human) (UniProt P31749)
AURKA (human) = AURKA (human) (UniProt O14965)
BRSK2 (human) = BRSK2 (human) (UniProt Q8IWQ3)
CAMK4 (human) = CAMK4 (human) (UniProt Q16566)
CAMKK1 (human) = CAMKK1 (human) (UniProt Q8N5S9)
CAMKK1 (human), sequence (Q8N5S9 whole entry, looked up): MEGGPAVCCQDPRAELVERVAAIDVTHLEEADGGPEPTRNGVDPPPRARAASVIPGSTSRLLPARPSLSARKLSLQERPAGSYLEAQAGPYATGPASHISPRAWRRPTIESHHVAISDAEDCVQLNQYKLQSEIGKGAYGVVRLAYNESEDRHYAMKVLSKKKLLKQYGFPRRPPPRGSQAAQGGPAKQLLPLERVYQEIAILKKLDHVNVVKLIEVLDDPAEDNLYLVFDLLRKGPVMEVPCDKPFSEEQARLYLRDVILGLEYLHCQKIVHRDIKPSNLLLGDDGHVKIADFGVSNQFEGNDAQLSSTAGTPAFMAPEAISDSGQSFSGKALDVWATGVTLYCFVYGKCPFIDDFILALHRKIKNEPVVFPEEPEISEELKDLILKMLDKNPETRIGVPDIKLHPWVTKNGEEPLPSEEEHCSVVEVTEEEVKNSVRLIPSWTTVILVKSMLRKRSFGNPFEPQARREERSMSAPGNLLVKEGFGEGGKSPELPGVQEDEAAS

CAMKK2 (human) = CAMKK2 (human) (UniProt Q96RR4)
CDK1 CCNA2 (human) = CDK1 CCNA2 (human) (UniProt P06493+P20248)
CDK3 CCNE1 (human) = CDK3 CCNE1 (human) (UniProt Q00526+P24864)
DCLK2 (human) = DCLK2 (human) (UniProt Q8N568)
DYRK1B (human) = DYRK1B (human) (UniProt Q9Y463)
IGF1R (human) = IGF1R (human) (UniProt P08069)
IKBKB (human) = IKBKB (human) (UniProt O14920)
JAK3 JH1 JH2 (human) = JAK3 JH1 JH2 (human) (UniProt P52333)
LYN (human) = LYN (human) (UniProt P07948)
MAP3K14 (human) = MAP3K14 (human) (UniProt Q99558)
MAPK9 (human) = MAPK9 (human) (UniProt P45984)
MAPKAPK5 (human) = MAPKAPK5 (human) (UniProt Q8IW41)
MARK1 (human) = MARK1 (human) (UniProt Q9P0L2)
MET (human) = MET (human) (UniProt P08581)
NEK1 (human) = NEK1 (human) (UniProt Q96PY6)
NEK1 (human), sequence (Q96PY6 whole entry, looked up): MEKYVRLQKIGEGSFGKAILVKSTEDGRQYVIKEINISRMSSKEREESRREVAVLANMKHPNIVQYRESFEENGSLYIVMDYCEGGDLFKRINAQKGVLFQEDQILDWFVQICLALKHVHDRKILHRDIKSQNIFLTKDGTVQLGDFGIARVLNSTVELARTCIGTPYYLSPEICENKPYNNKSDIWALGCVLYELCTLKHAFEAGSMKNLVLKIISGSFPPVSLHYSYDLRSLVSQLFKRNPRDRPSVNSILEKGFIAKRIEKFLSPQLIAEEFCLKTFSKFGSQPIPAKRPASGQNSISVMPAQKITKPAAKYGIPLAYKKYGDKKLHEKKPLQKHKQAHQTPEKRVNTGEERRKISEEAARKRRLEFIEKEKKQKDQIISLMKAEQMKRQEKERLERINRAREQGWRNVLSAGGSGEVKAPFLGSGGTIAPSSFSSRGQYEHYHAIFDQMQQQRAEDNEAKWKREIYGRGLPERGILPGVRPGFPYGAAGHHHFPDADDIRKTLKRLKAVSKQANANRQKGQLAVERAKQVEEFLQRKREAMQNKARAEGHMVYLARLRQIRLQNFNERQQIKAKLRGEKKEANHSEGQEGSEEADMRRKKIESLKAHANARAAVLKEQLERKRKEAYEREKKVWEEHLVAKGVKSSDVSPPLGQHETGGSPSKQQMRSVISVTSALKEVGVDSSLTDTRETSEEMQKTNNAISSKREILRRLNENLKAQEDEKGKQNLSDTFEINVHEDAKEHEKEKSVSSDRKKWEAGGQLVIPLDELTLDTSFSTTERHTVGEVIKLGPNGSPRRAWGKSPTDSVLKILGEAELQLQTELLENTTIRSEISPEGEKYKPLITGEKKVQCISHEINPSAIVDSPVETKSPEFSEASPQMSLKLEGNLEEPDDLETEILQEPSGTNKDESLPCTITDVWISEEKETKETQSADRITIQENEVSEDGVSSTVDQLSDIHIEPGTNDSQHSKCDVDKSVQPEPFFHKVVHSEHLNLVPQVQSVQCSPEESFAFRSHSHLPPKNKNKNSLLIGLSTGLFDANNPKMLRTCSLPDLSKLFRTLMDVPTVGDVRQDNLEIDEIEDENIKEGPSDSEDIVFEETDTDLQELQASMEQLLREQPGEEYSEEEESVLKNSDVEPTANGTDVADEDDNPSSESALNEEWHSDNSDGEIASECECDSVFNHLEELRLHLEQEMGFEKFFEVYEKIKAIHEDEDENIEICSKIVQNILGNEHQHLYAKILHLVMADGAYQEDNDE

NTRK1 (human) = NTRK1 (human) (UniProt P04629)
OXSR1 (human) = OXSR1 (human) (UniProt O95747)
PAK2 (human) = PAK2 (human) (UniProt Q13177)
PAK2 (human), sequence (Q13177 whole entry, looked up): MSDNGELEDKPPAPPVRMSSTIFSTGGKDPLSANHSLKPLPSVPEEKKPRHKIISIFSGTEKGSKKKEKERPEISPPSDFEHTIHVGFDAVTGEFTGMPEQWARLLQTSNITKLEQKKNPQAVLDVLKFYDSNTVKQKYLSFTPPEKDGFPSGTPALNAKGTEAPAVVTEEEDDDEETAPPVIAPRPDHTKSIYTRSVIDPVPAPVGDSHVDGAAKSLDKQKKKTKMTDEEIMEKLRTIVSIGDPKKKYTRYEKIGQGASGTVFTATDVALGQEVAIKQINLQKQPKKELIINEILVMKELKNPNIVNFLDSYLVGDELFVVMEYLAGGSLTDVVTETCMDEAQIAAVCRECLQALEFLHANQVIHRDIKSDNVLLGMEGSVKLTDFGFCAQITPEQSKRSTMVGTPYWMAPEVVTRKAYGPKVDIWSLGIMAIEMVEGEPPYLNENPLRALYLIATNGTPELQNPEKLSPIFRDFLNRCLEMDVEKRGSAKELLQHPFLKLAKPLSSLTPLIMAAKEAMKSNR

PAK4 (human) = PAK4 (human) (UniProt O96013)
PAK6 (human) = PAK6 (human) (UniProt Q9NQU5)
PAK6 (human), sequence (Q9NQU5 whole entry, looked up): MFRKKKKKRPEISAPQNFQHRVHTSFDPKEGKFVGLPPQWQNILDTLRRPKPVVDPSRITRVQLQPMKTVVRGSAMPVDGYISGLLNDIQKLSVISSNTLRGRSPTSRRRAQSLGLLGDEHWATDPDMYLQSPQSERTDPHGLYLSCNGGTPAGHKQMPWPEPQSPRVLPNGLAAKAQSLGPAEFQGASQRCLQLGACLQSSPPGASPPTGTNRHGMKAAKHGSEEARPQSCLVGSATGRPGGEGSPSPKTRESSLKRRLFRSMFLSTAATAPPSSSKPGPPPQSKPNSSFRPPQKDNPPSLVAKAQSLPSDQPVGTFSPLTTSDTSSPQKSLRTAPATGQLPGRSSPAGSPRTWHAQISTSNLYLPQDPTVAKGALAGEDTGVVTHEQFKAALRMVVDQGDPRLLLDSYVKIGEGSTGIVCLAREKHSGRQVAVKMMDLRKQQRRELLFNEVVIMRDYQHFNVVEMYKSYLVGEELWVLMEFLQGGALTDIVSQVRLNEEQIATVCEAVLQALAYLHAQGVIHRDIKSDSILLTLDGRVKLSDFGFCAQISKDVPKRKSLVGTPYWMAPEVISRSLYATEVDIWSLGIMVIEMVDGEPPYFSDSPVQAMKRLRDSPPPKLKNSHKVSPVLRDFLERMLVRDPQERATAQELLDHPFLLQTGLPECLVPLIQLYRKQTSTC

PDPK1 (human) = PDPK1 (human) (UniProt O15530)
PRKCA (human) = PRKCA (human) (UniProt P17252)
PRKCB2 (human) = PRKCB2 (human) (UniProt P05771)
PRKCH (human) = PRKCH (human) (UniProt P24723)
PTK6 (human) = PTK6 (human) (UniProt Q13882)
RIPK2 (human) = RIPK2 (human) (UniProt O43353)
RIPK2 (human), sequence (O43353 whole entry, looked up): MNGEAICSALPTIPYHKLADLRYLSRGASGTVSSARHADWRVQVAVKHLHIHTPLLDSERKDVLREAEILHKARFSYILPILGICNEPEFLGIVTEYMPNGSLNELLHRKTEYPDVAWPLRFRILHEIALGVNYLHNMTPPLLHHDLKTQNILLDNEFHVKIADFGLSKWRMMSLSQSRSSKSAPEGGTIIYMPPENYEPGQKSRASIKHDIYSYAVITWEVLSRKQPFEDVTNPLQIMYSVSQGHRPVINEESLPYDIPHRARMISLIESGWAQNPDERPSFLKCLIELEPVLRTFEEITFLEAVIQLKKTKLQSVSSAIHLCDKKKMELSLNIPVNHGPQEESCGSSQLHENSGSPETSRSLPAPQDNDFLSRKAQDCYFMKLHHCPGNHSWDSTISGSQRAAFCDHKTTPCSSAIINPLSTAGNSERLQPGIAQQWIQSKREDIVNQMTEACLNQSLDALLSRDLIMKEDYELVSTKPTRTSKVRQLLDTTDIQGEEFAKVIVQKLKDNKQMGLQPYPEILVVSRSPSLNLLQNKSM

RPS6KA3 KD1 KD2 (human) = RPS6KA3 KD1 KD2 (human) (UniProt P51812)
RPS6KB1 (human) = RPS6KB1 (human) (UniProt P23443)
SRPK3 (human) = SRPK3 (human) (UniProt Q9UPE1)
STK16 (human) = STK16 (human) (UniProt O75716)
STK16 (human), sequence (O75716 whole entry, looked up): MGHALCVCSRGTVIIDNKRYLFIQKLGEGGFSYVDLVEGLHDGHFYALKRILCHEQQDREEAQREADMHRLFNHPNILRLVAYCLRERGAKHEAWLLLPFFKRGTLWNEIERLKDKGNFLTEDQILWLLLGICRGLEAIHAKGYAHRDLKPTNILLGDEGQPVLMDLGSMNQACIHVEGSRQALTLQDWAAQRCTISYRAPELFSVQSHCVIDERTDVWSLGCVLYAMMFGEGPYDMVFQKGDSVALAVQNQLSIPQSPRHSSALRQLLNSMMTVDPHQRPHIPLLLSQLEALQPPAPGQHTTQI

STK38 (human) = STK38 (human) (UniProt Q15208)
STK38 (human), sequence (Q15208 whole entry, looked up): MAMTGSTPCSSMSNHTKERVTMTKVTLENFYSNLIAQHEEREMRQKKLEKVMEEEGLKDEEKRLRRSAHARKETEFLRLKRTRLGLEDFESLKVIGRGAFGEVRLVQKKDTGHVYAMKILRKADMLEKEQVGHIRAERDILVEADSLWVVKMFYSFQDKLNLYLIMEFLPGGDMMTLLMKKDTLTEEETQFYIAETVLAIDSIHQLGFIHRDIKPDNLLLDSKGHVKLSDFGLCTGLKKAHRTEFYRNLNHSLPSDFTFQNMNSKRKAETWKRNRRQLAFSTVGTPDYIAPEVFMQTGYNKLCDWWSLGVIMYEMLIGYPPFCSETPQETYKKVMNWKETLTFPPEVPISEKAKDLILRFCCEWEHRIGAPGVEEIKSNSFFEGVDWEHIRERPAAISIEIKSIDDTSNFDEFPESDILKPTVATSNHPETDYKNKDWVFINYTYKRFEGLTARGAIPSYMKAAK

SYK (human) = SYK (human) (UniProt P43405)
TXK (human) = TXK (human) (UniProt P42681)
[1] = biological target: TYK2 JH1 catalytic (human) (UniProt P29597)
ULK3 (human) = ULK3 (human) (UniProt Q6PHR2)
ZAP70 (human) = ZAP70 (human) (UniProt P43403)
ZAP70 (human), sequence (P43403 whole entry, looked up): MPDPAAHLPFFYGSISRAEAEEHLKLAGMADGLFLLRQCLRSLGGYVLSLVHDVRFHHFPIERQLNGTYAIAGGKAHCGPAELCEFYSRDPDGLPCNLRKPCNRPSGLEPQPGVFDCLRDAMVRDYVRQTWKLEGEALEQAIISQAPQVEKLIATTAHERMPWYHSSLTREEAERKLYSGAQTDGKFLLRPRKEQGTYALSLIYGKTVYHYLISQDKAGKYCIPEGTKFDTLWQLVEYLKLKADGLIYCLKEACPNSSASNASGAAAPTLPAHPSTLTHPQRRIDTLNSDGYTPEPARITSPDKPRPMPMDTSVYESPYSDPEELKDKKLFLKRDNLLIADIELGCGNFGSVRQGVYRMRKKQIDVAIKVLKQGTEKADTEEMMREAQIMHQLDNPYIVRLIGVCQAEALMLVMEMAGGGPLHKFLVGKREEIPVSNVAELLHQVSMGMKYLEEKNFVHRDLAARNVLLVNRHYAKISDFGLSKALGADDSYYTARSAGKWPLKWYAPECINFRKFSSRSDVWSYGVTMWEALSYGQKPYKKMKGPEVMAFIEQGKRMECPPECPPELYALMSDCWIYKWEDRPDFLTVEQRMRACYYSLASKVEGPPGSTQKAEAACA

Compound: CNC(=O)c1cc(Oc2ccc(NC(=O)Nc3ccc(Cl)c(C(F)(F)F)c3)cc2)ccn1
residual activity (ABL2 (human)): 99.4%
residual activity (AKT1 (human)): 96.2%
residual activity (AURKA (human)): 103%
residual activity (BRSK2 (human)): 103%
residual activity (CAMK4 (human)): 107%
residual activity (CAMKK1 (human)): 103%
residual activity (CAMKK2 (human)): 103%
residual activity (CDK1 CCNA2 (human)): 100%
residual activity (CDK3 CCNE1 (human)): 96.5%
residual activity (DCLK2 (human)): 102%
residual activity (DYRK1B (human)): 93.2%
residual activity (IGF1R (human)): 94.3%
residual activity (IKBKB (human)): 88.3%
residual activity (JAK3 JH1 JH2 (human)): 99.4%
residual activity (LYN (human)): 88.1% and 98.8%
residual activity (MAP3K14 (human)): 96.4%
residual activity (MAPK9 (human)): 94.8%
residual activity (MAPKAPK5 (human)): 95.8%
residual activity (MARK1 (human)): 80.3%
residual activity (MET (human)): 105%
residual activity (NEK1 (human)): 88.8%
residual activity (NTRK1 (human)): 76.1%
residual activity (OXSR1 (human)): 103%
residual activity (PAK2 (human)): 101%
residual activity (PAK4 (human)): 91.8%
residual activity (PAK6 (human)): 104%
residual activity (PDPK1 (human)): 95.8%
residual activity (PRKCA (human)): 96.8%
residual activity (PRKCB2 (human)): 97.5%
residual activity (PRKCH (human)): 107%
residual activity (PTK6 (human)): 96.9%
residual activity (RIPK2 (human)): 86.2%
residual activity (RPS6KA3 KD1 KD2 (human)): 100%
residual activity (RPS6KB1 (human)): 91.4%
residual activity (SRPK3 (human)): 88.4%
residual activity (STK16 (human)): 105%
residual activity (STK38 (human)): 99.8%
residual activity (SYK (human)): 101%
residual activity (TXK (human)): 106%
residual activity [1]: 98.9%
residual activity (ULK3 (human)): 103%
residual activity (ZAP70 (human)): 97.8%

Compound: CCN(CC)CCNC(=O)c1c(C)[nH]c(/C=C2\C(=O)Nc3ccc(Cl)cc32)c1C
residual activity (ABL2 (human)): 46.8%
residual activity (AKT1 (human)): 102%
residual activity (AURKA (human)): 80.3%
residual activity (BRSK2 (human)): 53.7%
residual activity (CAMK4 (human)): 95%
residual activity (CAMKK1 (human)): 47.7%
residual activity (CAMKK2 (human)): 48%
residual activity (CDK1 CCNA2 (human)): 87.5%
residual activity (CDK3 CCNE1 (human)): 88.3%
residual activity (DCLK2 (human)): 82.8%
residual activity (DYRK1B (human)): 47.5%
residual activity (IGF1R (human)): 35.2%
residual activity (IKBKB (human)): 101%
residual activity (JAK3 JH1 JH2 (human)): 39.3%
residual activity (LYN (human)): 21.9% and 6.34%
residual activity (MAP3K14 (human)): 118%
residual activity (MAPK9 (human)): 109%
residual activity (MAPKAPK5 (human)): 91.6%
residual activity (MARK1 (human)): 18.1%
residual activity (MET (human)): 77%
residual activity (NEK1 (human)): 94.7%
residual activity (NTRK1 (human)): 8.73%
residual activity (OXSR1 (human)): 80.1%
residual activity (PAK2 (human)): 92.7%
residual activity (PAK4 (human)): 76.7%
residual activity (PAK6 (human)): 101%
residual activity (PDPK1 (human)): 101%
residual activity (PRKCA (human)): 93.1%
residual activity (PRKCB2 (human)): 110%
residual activity (PRKCH (human)): 86.1%
residual activity (PTK6 (human)): 51.3%
residual activity (RIPK2 (human)): 84.1%
residual activity (RPS6KA3 KD1 KD2 (human)): 15.1%
residual activity (RPS6KB1 (human)): 41.7%
residual activity (SRPK3 (human)): 92.8%
residual activity (STK16 (human)): 72.9%
residual activity (STK38 (human)): 95.8%
residual activity (SYK (human)): 59.2%
residual activity (TXK (human)): 79.5%
residual activity [1]: 30.8%
residual activity (ULK3 (human)): 21.6%
residual activity (ZAP70 (human)): 91.2%

residual activity (ABL2 (human)): 84.8%
residual activity (AKT1 (human)): 103%
residual activity (AURKA (human)): 76.5%
residual activity (BRSK2 (human)): 98.3%
residual activity (CAMK4 (human)): 101%
residual activity (CAMKK1 (human)): 99.1%
residual activity (CAMKK2 (human)): 86.3%
residual activity (CDK1 CCNA2 (human)): 93.7%
residual activity (CDK3 CCNE1 (human)): 92.6%
residual activity (DCLK2 (human)): 99.5%
residual activity (DYRK1B (human)): 92.2%
residual activity (IGF1R (human)): 104%
residual activity (IKBKB (human)): 101%
residual activity (JAK3 JH1 JH2 (human)): 105%
residual activity (LYN (human)): 3.49% and 5.13%
residual activity (MAP3K14 (human)): 113%
residual activity (MAPK9 (human)): 100%
residual activity (MAPKAPK5 (human)): 98.7%
residual activity (MARK1 (human)): 94.1%
residual activity (MET (human)): 110%
residual activity (NEK1 (human)): 79.3%
residual activity (NTRK1 (human)): 94.3%
residual activity (OXSR1 (human)): 93.5%
residual activity (PAK2 (human)): 106%
residual activity (PAK4 (human)): 101%
residual activity (PAK6 (human)): 88.2%
residual activity (PDPK1 (human)): 102%
residual activity (PRKCA (human)): 106%
residual activity (PRKCB2 (human)): 107%
residual activity (PRKCH (human)): 92.6%
residual activity (PTK6 (human)): 0.775%
residual activity (RIPK2 (human)): 28.6%
residual activity (RPS6KA3 KD1 KD2 (human)): 96.9%
residual activity (RPS6KB1 (human)): 104%
residual activity (SRPK3 (human)): 95.7%
residual activity (STK16 (human)): 90.7%
residual activity (STK38 (human)): 99.3%
residual activity (SYK (human)): 104%
residual activity (TXK (human)): 17.3%
residual activity [1]: 98.5%
residual activity (ULK3 (human)): 102%
residual activity (ZAP70 (human)): 102%
Compound: Nc1ncnc2c1c(-c1ccc(Oc3ccccc3)cc1)cn2C1CCCC1

Compound: N#CC(C#N)=C(N)/C(C#N)=C/c1ccc(O)cc1
residual activity (ABL2 (human)): 94.9%
residual activity (AKT1 (human)): 99.2%
residual activity (AURKA (human)): 89.6%
residual activity (BRSK2 (human)): 101%
residual activity (CAMK4 (human)): 97.2%
residual activity (CAMKK1 (human)): 104%
residual activity (CAMKK2 (human)): 91.6%
residual activity (CDK1 CCNA2 (human)): 90.6%
residual activity (CDK3 CCNE1 (human)): 96.8%
residual activity (DCLK2 (human)): 101%
residual activity (DYRK1B (human)): 101%
residual activity (IGF1R (human)): 90.6%
residual activity (IKBKB (human)): 102%
residual activity (JAK3 JH1 JH2 (human)): 102%
residual activity (LYN (human)): 102% and 92.2%
residual activity (MAP3K14 (human)): 108%
residual activity (MAPK9 (human)): 105%
residual activity (MAPKAPK5 (human)): 94.2%
residual activity (MARK1 (human)): 111%
residual activity (MET (human)): 117%
residual activity (NEK1 (human)): 95.7%
residual activity (NTRK1 (human)): 102%
residual activity (OXSR1 (human)): 72.2%
residual activity (PAK2 (human)): 86%
residual activity (PAK4 (human)): 85.6%
residual activity (PAK6 (human)): 97%
residual activity (PDPK1 (human)): 99.4%
residual activity (PRKCA (human)): 97.4%
residual activity (PRKCB2 (human)): 111%
residual activity (PRKCH (human)): 90.3%
residual activity (PTK6 (human)): 84.9%
residual activity (RIPK2 (human)): 95.5%
residual activity (RPS6KA3 KD1 KD2 (human)): 94.6%
residual activity (RPS6KB1 (human)): 89.5%
residual activity (SRPK3 (human)): 96.4%
residual activity (STK16 (human)): 109%
residual activity (STK38 (human)): 96.9%
residual activity (SYK (human)): 101%
residual activity (TXK (human)): 100%
residual activity [1]: 97.4%
residual activity (ULK3 (human)): 67.8%
residual activity (ZAP70 (human)): 96%
